This experiment addresses T1, human topoisomerase IIα (rhTopoIIα ATPase domain) (Homo sapiens, UniProt P11388).
T1 construct: gene TOP2A; ATPase domain (45 kDa, recombinant, pET28b-hTopoIIα-ATPase)
Nature of the experiment: ADP-Glo ATPase assay with purified recombinant ATPase domain. In kind it is biochemical. Conditions: read-out: IC50 against rhTopoIIα ATPase domain. (In general: ADP-Glo first removes unused ATP, then detects ADP through luciferase.)

T1 sequence (P11388 29-428 limits assumed): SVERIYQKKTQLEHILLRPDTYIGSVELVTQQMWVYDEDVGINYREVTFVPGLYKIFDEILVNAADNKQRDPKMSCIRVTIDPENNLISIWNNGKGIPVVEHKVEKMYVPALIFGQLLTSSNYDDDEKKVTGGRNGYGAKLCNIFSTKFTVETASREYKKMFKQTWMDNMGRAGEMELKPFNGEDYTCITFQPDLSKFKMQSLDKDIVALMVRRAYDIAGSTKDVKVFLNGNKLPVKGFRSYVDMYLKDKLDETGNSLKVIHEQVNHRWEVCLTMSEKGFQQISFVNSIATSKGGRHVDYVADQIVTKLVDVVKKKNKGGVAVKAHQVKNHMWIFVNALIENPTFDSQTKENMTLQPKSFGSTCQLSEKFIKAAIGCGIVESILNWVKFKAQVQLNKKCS

A word on the IC50: it is the midpoint of a concentration-inhibition curve. For `COc1cc(O)c(C(=O)/C=C/c2cc(OC)c(OC)c(OC)c2)c(OC)c1` [3d, chalcone 3d], the IC50 turned out to be 0.0075 ± 0.0042 µM. Next, `Cc1ccc2c(c1CCC(O)C(C)(C)O)C(=O)C(=O)C(C(C)C)=C2` (centres unmarked) [Salvicine]: 0.327 ± 0.0066 µM.

Source of the values: publication PMC6225485, “Computational screening of chalcones acting against topoisomerase IIα and their cytotoxicity towards cancer cell lines” (Journal of Enzyme Inhibition and Medicinal Chemistry, 2018).
